From patent publication US12459985B2, “G-protein-coupled receptor internal sensors” (THE REGENTS OF THE UNIVERSITY OF CALIFORNIA, priority 2016, dated 2025)

Molecular target: Beta2AR with a cpGFP integrated into the third intracellular loop (Homo sapiens, UniProt P07550)
Conditions: saturating conditions (1 μM drug)

CNC[C@H](O)c1ccc(O)c(O)c1 [epinephrine] gave a τ½ON (time constant of association) of 17.1 s and a τ½OFF (time constant of dissociation) of 235.34 s.
